Laboratory results from patent US10203320B2, “Label free method for assessing chemical cardiotoxicity” (Corning Incorporated, priority 2012, dated 2019).

Experiments:
[1] = test system: cultured human iPS-derived cardiomyocytes; test: Label-free beat pattern (resonant light intensity imaging) of cultured cardiomyocytes on RWG biosensor; details: Cardiomyocyte, 0.25 h, read-out: IC50, dose-dependent decrease/block of beating (beat rate and amplitude) of cultured cardiomyocytes
Method: Coating of EPIC® resonant waveguide grating (RWG) biosensors. EPIC® 384 well cell culture compatible plates were obtained from Corning, Inc. (Corning, N.Y.). The gelatin-coated EPIC® plates were obtained by incubating the plates with 10 microliter of 20 microgram/mL of freshly prepared gelatin solution in phosphate buffer saline and dried overnight under vacuum. Alternatively or additionally, for example, in experiments with IPS derived cardiomyocytes, the gelatin-coated EPIC® plates were obtained by incubating overnight, uncoated plates with 40 microliters of 0.1% gelatin (Type A) in a solution made with distilled water and autoclaved for 30 minutes to sterilize. The incubated plates were then washed with 40 microliters of sterile water three times immediately before seeding with cardiomyocyte cells.

[2] = test system: cultured human iPS-derived cardiomyocytes; test: Dynamic mass redistribution (DMR) assay of cultured cardiomyocytes on RWG biosensor; format: cell-based; details: 160 nM
Method: Coating of EPIC® resonant waveguide grating (RWG) biosensors. […] VN is the abbreviation of a vitronectin peptide ([…]). First, a functionalized cell adhesive peptide-copolymer was prepared. […] The mobile phase was trifluoroethanol and potassium trifluoroacetate. […] Standards were prepared using the VN peptide in PBS. Absorbance was read on a BIOTEK® Synergy 4.
First Mode The resonant waveguide grating biosensor is illuminated at a normal incidence angle by a collimated LED (light emitting diode) beam, which passes through a tunable optical filter with a pass band width of 1 nm. The illuminated sensor area was imaged to a high speed CMOS (complementary metal-oxide-semiconductor) camera. Spectral images were acquired synchronously when the tunable filter sweeps through a wavelength range which covers the resonances of the biosensors. The image stack contains sensor spectra in all the pixels, where resonance wavelengths are extracted in a 2D image. Normally in each acquisition, the wavelength sweep is from 825 nm to 840 nm, or 820 nm to 835 nm for a duration of 3 seconds, and 150 frames of images were acquired during the wavelength scan. For typical long-term DMR assays, the update rate was from 15 seconds to minutes, with multiple scans averaged into a single data point. […]

SMILES	IC50 [1]	DMR signal of cultured cardiomyocytes in response to stimulation ([2]; compared to negative control (assay vehicle), 37° C., FIG. 3)	oscillation pattern of the DMR signal after stimulation ([2]; compared to the baseline and the DMR induced by the assay buffer)
COc1cc(N)c(Cl)cc1C(=O)NC1CCN(CCCOc2ccc(F)cc2)CC1OC (stereo not shown) [cisapride, cisapride monohydrate]	~160 nM	–	–
CC(C)NC[C@H](O)c1ccc(O)c(O)c1 [isoprotenerol, (−)-Isoproterenol]	–	more sustained DMR signal	became smaller but with higher frequency
COC(=O)C1=C(C)NC(C)=C(C(=O)OC(C)C)C1c1cccc2nonc12 (stereo not shown) [isradipine]	~100 nM	–	–
